Assay results reported in patent publication US9938262B2, “Benzamides” (Merck Patent GmbH, priority 2011, dated 2018).
Where two headings read alike, the source gives them in different places.

Experiments:
FSHR = target: T1, FSHR (Homo sapiens, UniProt P23945); assay: EC50 of cyclic AMP production in CHO FSHR cells + EC20 FSH (Assay A); assay type: cell-based
T1 construct: expressed in transfected cells; host or cells: CHO (Cho-FSHR-LUC-1-1-43)
Procedure, shortened: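 cAMP HTRF ratio (665/620 nm) read after 1 h, 37 °C exposure of CHO-FSHR cells to compound in presence of EC20 FSH ([…]) and IBMX 200 μM. Responses given relative to FSH standard maximum; EC50 derived.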

[1] = target: T2, follicle-stimulating hormone (FSH) receptor (Rattus norvegicus, UniProt P20395); assay: Rat granulosa EC50 FSH (Assay B); assay type: cell-based; details: rat granulosa cells
T2 construct: endogenous in cells; host or cells: rat granulosa cells
T2 sequence (P20395 18-692): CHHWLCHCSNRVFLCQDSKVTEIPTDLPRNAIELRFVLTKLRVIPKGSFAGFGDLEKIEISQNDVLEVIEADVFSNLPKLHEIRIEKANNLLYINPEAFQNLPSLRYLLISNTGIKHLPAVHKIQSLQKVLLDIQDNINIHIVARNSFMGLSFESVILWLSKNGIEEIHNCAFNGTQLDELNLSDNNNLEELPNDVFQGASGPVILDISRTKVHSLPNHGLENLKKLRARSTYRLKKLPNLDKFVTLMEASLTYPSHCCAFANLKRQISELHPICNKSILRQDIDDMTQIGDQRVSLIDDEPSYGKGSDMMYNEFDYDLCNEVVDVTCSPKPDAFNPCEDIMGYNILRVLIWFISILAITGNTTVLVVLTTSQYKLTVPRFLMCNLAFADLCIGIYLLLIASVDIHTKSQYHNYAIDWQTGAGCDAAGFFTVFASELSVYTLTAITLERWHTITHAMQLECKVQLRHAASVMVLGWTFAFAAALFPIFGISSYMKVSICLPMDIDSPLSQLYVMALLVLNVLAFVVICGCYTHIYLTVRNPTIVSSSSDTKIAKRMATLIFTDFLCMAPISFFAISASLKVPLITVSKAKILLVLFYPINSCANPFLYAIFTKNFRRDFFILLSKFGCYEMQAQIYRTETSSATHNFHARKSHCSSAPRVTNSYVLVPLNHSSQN
Description: Example 11: Rat Granulosa EC50 FSH (Assay B)
The assay was performed pursuant to the teaching of Yanofsky et al. (2006) Allosteric activation of the follicle-stimulating hormone (FSH) receptor by selective, nonpeptide agonists. JBC 281(19): 13226-13233, which is incorporated by reference in the disclosure of the invention.

[2] = CHO FSHR cells + EC20 FSH, Table 1, read-out: Assay A EC50 of cyclic AMP production
[3] = CHO FSHR cells + EC20 FSH, Table 2, read-out: Assay A EC50 of cyclic AMP production

T1 sequence (P23945 18-695): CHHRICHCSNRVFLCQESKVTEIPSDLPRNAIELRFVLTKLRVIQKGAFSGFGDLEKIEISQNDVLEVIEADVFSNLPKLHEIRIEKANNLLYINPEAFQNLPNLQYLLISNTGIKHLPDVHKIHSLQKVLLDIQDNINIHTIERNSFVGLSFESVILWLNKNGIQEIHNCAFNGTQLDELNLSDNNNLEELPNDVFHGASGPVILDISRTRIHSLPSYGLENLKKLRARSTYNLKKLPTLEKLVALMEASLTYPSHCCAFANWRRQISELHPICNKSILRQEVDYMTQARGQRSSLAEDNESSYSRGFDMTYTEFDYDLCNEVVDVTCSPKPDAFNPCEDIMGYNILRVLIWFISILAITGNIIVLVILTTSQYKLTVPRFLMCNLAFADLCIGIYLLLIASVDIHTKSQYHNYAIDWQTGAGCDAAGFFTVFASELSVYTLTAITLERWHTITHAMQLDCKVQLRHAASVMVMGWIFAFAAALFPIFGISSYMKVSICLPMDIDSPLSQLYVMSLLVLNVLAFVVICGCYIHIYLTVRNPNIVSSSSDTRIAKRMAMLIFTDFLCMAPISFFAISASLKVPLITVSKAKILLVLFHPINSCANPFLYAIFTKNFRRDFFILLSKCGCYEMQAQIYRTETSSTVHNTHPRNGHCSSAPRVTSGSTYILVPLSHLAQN
T1 sequence (P01215 25-116 partner): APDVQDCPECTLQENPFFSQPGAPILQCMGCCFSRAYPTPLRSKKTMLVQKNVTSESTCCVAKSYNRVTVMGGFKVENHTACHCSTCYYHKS
T1 sequence (P01225 19-129 partner): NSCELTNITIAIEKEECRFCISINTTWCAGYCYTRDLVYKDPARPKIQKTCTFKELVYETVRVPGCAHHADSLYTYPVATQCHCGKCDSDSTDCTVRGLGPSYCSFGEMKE

| EC50 (FSHR; [2]) [µM] | EC50 ([1]; Table 1) [µM] | Structure (SMILES) | further results |
| --- | --- | --- | --- |
| < 0.1 | 1 to 10 | Cc1ccccc1N1CCN(c2ccc(C(=O)NCCCN3CCCC3=O)cc2NC(=O)c2ccco2)CC1 [Compound 2] |  |
| 0.1 to 1 |  | O=C(NCC1CCCO1)c1ccc(N2CCN(Cc3ccccc3)CC2)c(NC(=O)c2ccccc2Cl)c1 (centres unmarked) [Compound 3] | Assay B % at 5 μM ([1]; Table 1): 10% |
|  | 1 to 10 | Cc1ccccc1N1CCN(c2ccc(C(=O)NCCCN3CCCC3=O)cc2NC(=O)c2occc2C)CC1 [Compound 5] |  |
|  | 0.1 to 1 | Cc1ccc(C(=O)Nc2cc(C(=O)NCCCN3CCCC3=O)ccc2N2CCN(c3ccccc3C)CC2)o1 [Compound 6] |  |
| 0.1 to 1 | 0.1 to 1 | Cc1ccccc1N1CCN(c2ccc(C(=O)NCCc3c[nH]cn3)cc2NC(=O)c2ccco2)CC1 [Compound 15] |  |
|  | 1 to 10 | Cc1ccccc1N1CCN(c2ccc(C(=O)NCCCN3CCCC3=O)cc2NC(=O)c2ccccc2)CC1 [Compound 27] |  |
| 0.1 to 1 | 0.1 to 1 | Cc1ccccc1N1CCN(c2ccc(C(=O)NCCCN3CCCC3=O)cc2NC(=O)c2ccc(F)cc2)CC1 [Compound 31] |  |
| 0.1 to 1 | 1 to 10 | Cc1ccc(C(=O)Nc2cc(C(=O)NCCCN3CCCC3=O)ccc2N2CCN(c3ccccc3C)CC2)cc1 [Compound 35] |  |
|  | 0.1 to 1 | Cc1ccccc1N1CCN(c2ccc(C(=O)NCCCN3CCCC3=O)cc2NC(=O)c2ccccn2)CC1 [Compound 36] |  |
| 0.1 to 1 | 0.1 to 1 | Cc1ccccc1N1CCN(c2ccc(C(=O)NCCCN3CCCC3=O)cc2NS(=O)(=O)c2cccc3cccnc23)CC1 [Compound 45] |  |
| 0.1 to 1 |  | Cc1ccccc1N1CCN(c2ccc(C(=O)NC3CCN(S(C)(=O)=O)CC3)cc2NC(=O)c2ccco2)CC1 [Compound 58, Furan-2-carboxylic acid [5-(1-methanesulfonyl-piperidin-4-ylcarbamoyl)-2-(4-o-tolyl-piperazin-1-yl)-phenyl]-amide] | Assay B % at 5 μM ([1]; Table 1): 27% |
| 0.1 to 1 | 1 to 10 | Cc1ccccc1N1CCN(c2ccc(C(=O)NCCCN3CCCC3=O)cc2NC(=O)c2cscn2)CC1 [Compound 73] |  |
| 0.1 to 1 | 0.1 to 1 | Cc1nc(C(=O)Nc2cc(C(=O)NCCCN3CCCC3=O)ccc2N2CCN(c3ccccc3C)CC2)cs1 [Compound 74] |  |
|  | > 10 | Cc1nc(C(=O)Nc2cc(C(=O)NCCCN3CCCC3=O)ccc2N2CCN(c3ccccc3C)CC2)co1 [Compound 75] |  |
| 0.1 to 1 | 0.1 to 1 | CCc1nc(C(=O)Nc2cc(C(=O)NCCCN3CCCC3=O)ccc2N2CCN(c3ccccc3C)CC2)co1 [Compound 79] |  |
|  | 0.1 to 1 | Cc1ccccc1N1CCN(c2ccc(C(=O)NCCCN3CCCC3=O)cc2NC(=O)C2CC2)CC1 [Compound 84] |  |
| 0.1 to 1 | 1 to 10 | Cc1ccccc1N1CCN(c2ccc(C(=O)NCCCN3CCCC3=O)cc2NC(=O)c2ccccc2F)CC1 [Compound 85] |  |
| < 0.1 | 0.1 to 1 | Cc1ccccc1N1CCN(c2ccc(C(=O)NCCCN3CCCC3=O)cc2NC(=O)c2coc(C3CC3)n2)CC1 [Compound 105] |  |
| 0.1 to 1 | 0.1 to 1 | Cc1ccccc1N1CCN(c2ccc(C(=O)NCCCN3CCCC3=O)cc2NC(=O)c2ccc(F)cn2)CC1 [Compound 128] |  |
| 0.1 to 1 | 0.1 to 1 | Cc1ccccc1N1CCN(c2ccc(C(=O)NCCCN3CCCC3=O)cc2NC(=O)c2ccc(Cl)o2)CC1 [Compound 135] |  |

| EC50 (FSHR; [2]) [µM] | EC50 ([1]; Table 1) [µM] | Structure (SMILES) | further results |
| --- | --- | --- | --- |
| 0.1 to 1 | 0.1 to 1 | Cc1ccccc1N1CCN(c2ccc(C(=O)NCCCN3C(=O)CCC3=O)cc2NC(=O)c2ccco2)CC1 [Compound 147] |  |
| 0.1 to 1 | 0.1 to 1 | Cc1ccccc1N1CCN(c2ccc(C(=O)NCCCN3C(=O)CSC3=O)cc2NC(=O)c2ccco2)CC1 [Compound 150] |  |
| 0.1 to 1 | < 0.1 | Cc1ccccc1N1CCN(c2ccc(C(=O)NCCCc3cn[nH]c3)cc2NC(=O)c2ccco2)CC1 [Compound 152] |  |
| 0.1 to 1 | 1 to 10 | Cc1ccccc1N1CCN(c2ccc(C(=O)NCCCN3CCOC3=O)cc2NC(=O)c2ccco2)CC1 [Compound 155] |  |
|  | 0.1 to 1 | Cc1ccccc1N1CCN(c2ccc(C(=O)NCCCC3CCOC3)cc2NC(=O)c2ccco2)CC1 (centres unmarked) [Compound 158] |  |
| 0.1 to 1 | 1 to 10 | C#Cc1ccc(C(=O)Nc2cc(C(=O)NCCCN3CCCC3=O)ccc2N2CCN(c3ccccc3C)CC2)o1 [Compound 176, 5-ethynyl-furan-2-carboxylic acid [5-[3-(2-oxo-pyrrolidin-1-yl)-propylcarbamoyl]-2-(4-o-tolyl-piperazin-1-yl)-phenyl]-amide] |  |
| 0.1 to 1 | 0.1 to 1 | Cc1ccccc1N1CCN(c2ccc(C(=O)NCCc3cccc(C(N)=O)c3)cc2NC(=O)c2ccco2)CC1 [Compound 188] |  |
| < 0.1 | 0.1 to 1 | Cc1ccccc1N1CCN(c2ccc(C(=O)NCc3cccc(C(N)=O)c3)cc2NC(=O)c2ccco2)CC1 [Compound 189] |  |
| 0.1 to 1 | 0.1 to 1 | Cc1csc(C(=O)Nc2cc(C(=O)NCCCN3CCCC3=O)ccc2N2CCN(c3ccccc3C)CC2)n1 [Compound 203] |  |
| 0.1 to 1 | 0.1 to 1 | Cc1ccccc1N1CCN(c2ccc(C(=O)NCCCN3CCCC3=O)cc2NC(=O)c2coc(Cl)n2)CC1 [Compound 207] |  |
|  | 1 to 10 | Cc1ccccc1N1CCN(c2ccc(C(=O)N3CCC4(CCOC4)CC3)cc2NC(=O)c2ccco2)CC1 [Compound 224] | activation at 5 µM (FSHR; 1 h, 5 μM, effect relative to maximum response of the FSH standard, Table 1): 10% |
| 0.1 to 1 |  | Cc1ccc(C(=O)Nc2cc(C(=O)NCCCCO)ccc2N2CCN(c3ccccc3C)CC2)o1 [Compound 241, 5-Methyl-furan-2-carboxylic acid [5-(4-hydroxy-butylcarbamoyl)-2-(4-o-tolyl-piperazin-1-yl)-phenyl]-amide] | Assay B % at 5 μM ([1]; Table 1): 177% |
| 1 to 10 | 1 to 10 | Cc1ccc(C(=O)Nc2cc(C(=O)NCCCN3CCCC3=O)ccc2N2CCN(c3ccccc3C(F)(F)F)CC2)o1 [Compound 246] |  |
|  |  | Cc1ccccc1N1CCN(c2ccc(C(=O)NCc3cccc(C(N)=O)c3)cc2NC(=O)c2coc(C3CC3)n2)CC1 [Compound 304] | EC50 (FSHR; [3]): < 0.1 µM; Assay B % at 1.25 μM ([1]; 1.25 μM, Table 2): 79% |
|  |  | Cc1ccccc1N1CCN(c2ccc(C(=O)NCCc3cccc(C(N)=O)c3)cc2NC(=O)c2coc(C3CC3)n2)CC1 [Compound 307] | EC50 (FSHR; [3]): 0.1 to 1 µM; EC50 ([1]; Table 2): 1 to 10 µM |
|  |  | Cc1ccccc1N1CCN(c2ccc(C(=O)N[C@H]3O[C@@H](CO)[C@H](O)[C@@H]3O)cc2NC(=O)c2coc(C3CC3)n2)CC1 [Compound 311] | EC50 (FSHR; [3]): 0.1 to 1 µM; EC50 ([1]; Table 2): 0.1 to 1 µM |
|  |  | Cc1ccccc1N1CCN(c2ccc(C(=O)NCCNC3CS(=O)(=O)C[C@H]3O)cc2NC(=O)c2ccco2)CC1 (some centres unmarked) [Compound 606] | EC50 (FSHR; [3]): 0.1 to 1 µM |
|  |  | Cc1ccccc1N1CCN(c2ccc(C(=O)NCCNC3CS(=O)(=O)C[C@@H]3O)cc2NC(=O)c2ccco2)CC1 (some centres unmarked) [Compound 607] | EC50 (FSHR; [3]): 0.1 to 1 µM |
|  |  | Cc1ccccc1N1CCN(c2ccc(C(=O)NCCCN3CCC[C@@H]3C(N)=O)cc2NC(=O)c2ccco2)CC1 [Compound 608] | EC50 (FSHR; [3]): 0.1 to 1 µM |
|  |  | Cc1ccccc1N1CCN(c2ccc(C(=O)NCCCN3CCC[C@H]3C(N)=O)cc2NC(=O)c2ccco2)CC1 [Compound 609] | EC50 (FSHR; [3]): 0.1 to 1 µM |

| Structure (SMILES) | EC50 (FSHR; [2]) [µM] | EC50 ([1]; Table 1) [µM] | further results |
| --- | --- | --- | --- |
| Cc1ccccc1N1CCN(c2ccc(C(=O)NCCCN3CCCC3=O)cc2NC(=O)c2ccc(Br)o2)CC1 [Compound 143, 5-Bromo-furan-2-carboxylic acid [5-[3-(2-oxo-pyrrolidin-1-yl)-propylcarbamoyl]-2-(4-o-tolyl-piperazin-1-yl)-phenyl]-amide] |  | 0.1 to 1 | EC50 (FSHR): 0.1 to 1 µM |
